Results published in patent publication EP4574819A1, “DIAZINONE COMPOUNDS FOR THE CONTROL OF INVERTEBRATE PESTS” (priority 2023, dated 2025).

Key:
Type in all cases: in vivo
[1] = tested on: Green peach aphid (Myzus persicae); assay: Green peach aphid (Myzus persicae) systemic test, artificial diet under artificial membrane; settings: adult aphids, 3 days, in comparison with untreated controls
Source text: B.5 Green peach aphid (Myzus persicae)
For evaluating control of green peach aphid (Myzus persicae) through systemic means, the test unit consisted of 96-well-microtiter plates containing liquid artificial diet under an artificial membrane.
The compounds were formulated using a solution containing 75% v/v water and 25% v/v DMSO. Different concentrations of formulated compounds were pipetted into the aphid diet, using a custom built pipetter, at two replications.
After application, 5 - 8 adult aphids were placed on the artificial membrane inside the microtiter plate wells. The aphids were then allowed to suck on the treated aphid diet and incubated at about 23 ± 1°C and about 50 ± 5 % relative humidity for 3 days. Aphid mortality and fecundity was then visually assessed.

[2] = tested on: Diamond back moth (Plutella xylostella); assay: Diamond back moth (Plutella xylostella) cabbage leaf dip test; settings: 3rd instar larvae, 72 hours after treatment, in comparison with untreated controls
Procedure: B.3 Diamond back moth (Plutella xylostella)
The active compound was dissolved at the desired concentration in a mixture of 1:1 (vol:vol) distilled water: acetone. Surfactant (Kinetic HV) was added at a rate of 0.01% (vol/vol). The test solution was prepared on the day of use.
Leaves of cabbage were dipped in test solution and air-dried. Treated leaves were placed in petri dishes lined with moist filter paper and inoculated with ten 3rd instar larvae. Mortality was recorded 72 hours after treatment. Feeding damages were also recorded using a scale of 0-100%.

[3] = tested on: Yellow fever mosquito (Aedes aegypti); assay: whole plant or invertebrate; settings: larval mortality after 2 days, in comparison with untreated controls
Procedure: B.4 Yellow fever mosquito (Aedes aegypti)
For evaluating control of yellow fever mosquito (Aedes aegypti) the test unit consists of 96-well-microtiter plates containing 200µl of tap water per well and 5-15 freshly hatched A. aegypti larvae.
The active compounds are formulated using a solution containing 75% (v/v) water and 25% (v/v) DMSO. Different concentrations of formulated compounds or mixtures are sprayed onto the insect diet at 2.5µl, using a custom-built micro atomizer, at two replications.
After application, microtiter plates are incubated at 28±1°C, 80±5 % RH for 2 days. Larval mortality is then visually assessed.

[4] = tested on: Boll weevil (Anthonomus grandis); assay: Boll weevil (Anthonomus grandis) egg/larval mortality on sprayed insect diet in 96-well microtiter plates; settings: 2500 ppm; egg and larval mortality after 5 days; in comparison with untreated controls
Procedure: B.2 Boll weevil (Anthonomus grandis)
For evaluating control of boll weevil (Anthonomus grandis) the test unit consists of 96-well-microtiter plates containing an insect diet and 5-10 A. grandis eggs.
The compounds are formulated using a solution containing 75% v/v water and 25% v/v DMSO. Different concentrations of formulated compounds are sprayed onto the insect diet at 5µl, using a custom-built micro atomizer, at two replications.
After application, microtiter plates are incubated at about 25 ± 1°C and about 75 ± 5 % relative humidity for 5 days. Egg and larval mortality is then visually assessed.

[5] = tested on: Tobacco budworm (Heliothis virescens); assay: Tobacco budworm (Heliothis virescens) egg/larval mortality on sprayed insect diet in 96-well microtiter plates; settings: 120 h, egg and larval mortality after 5 days, in comparison with untreated controls
Procedure: B.1 Tobacco budworm (Heliothis virescens)
For evaluating control of tobacco budworm (Heliothis virescens) the test unit consists of 96-well-microtiter plates containing an insect diet and 15-25 H. virescens eggs.
The compounds are formulated using a solution containing 75% v/v water and 25% v/v DMSO. Different concentrations of formulated compounds are sprayed onto the insect diet at 10µl, using a custom-built micro atomizer, at two replications.
After application, microtiter plates are incubated at about 28 ± 1°C and about 80 ± 5 % relative humidity for 5 days. Egg and larval mortality is then visually assessed.

| Structure (SMILES) | mortality ([1]; 2500 ppm) | mortality ([2]; 2500 ppm) | mortality ([3]; 2500 ppm) | mortality [4] | mortality at 2500 ppm ([1]; Myzus persicae, 72 h) [%] | mortality at 2500 ppm ([2]; Plutella xylostella, foliar) [%] | mortality at 2500 ppm ([3]; Aedes aegypti, 48 h) [%] | mortality at 2500 ppm [5] [%] |
| --- | --- | --- | --- | --- | --- | --- | --- | --- |
| CC(NC(=O)c1cc(C(F)(F)F)cc(C(F)(F)F)c1)c1nccnc1C1=NNC(=O)CN1C (centres unmarked) [Compound I-1, N-(1-(3-(4-Methyl-6-oxo-1,4,5,6-tetrahydro-1,2,4-triazin-3-yl)pyrazin-2-yl)ethyl)-3,5-bis(trifluoromethyl)benzamide] | at least 75% | at least 75% | at least 75% | at least 75% |  |  |  |  |
| CC(NC(=O)c1cc(C(F)(F)F)cc(C(F)(F)F)c1)c1nccnc1C1=NN(C)C(=O)CO1 (centres unmarked) [Compound I-4, N-(1-(3-(4-methyl-5-oxo-5,6-dihydro-4H-1,3,4-oxadiazin-2-yl)pyrazin-2-yl)ethyl)-3,5-bis(trifluoromethyl)benzamide] |  |  |  |  | ≥ 75 | ≥ 75 | ≥ 75 | ≥ 75 |
